{"source": "ChEMBL document CHEMBL5727881", "about": "“Pyridone amides as modulators of sodium channels” (2020)"}
{"test": "Electrophysiology Assay: Patch clamp electrophysiology was used to assess the efficacy and selectivity of sodium channel blockers in dorsal root ganglion neurons. Rat neurons were isolated from the dorsal root ganglions and maintained in culture for 2 to 10 days in the presence of NGF (50 ng/ml) (culture media consisted of NeurobasalA supplemented with B27, glutamine and antibiotics). Small diameter neurons (nociceptors, 8-12 μm in diameter) were visually identified and probed with fine tip glass electrodes connected to an amplifier (Axon Instruments). The “voltage clamp” mode was used to assess the compound's IC50 holding the cells at −60 mV. In addition, the “current clamp” mode was employed to test the efficacy of the compounds in blocking action potential generation in response to current injections. The results of these experiments contributed to the definition of the efficacy profile of the compounds.", "units": {"IC50": "µM"}}
{"compound": "O=C(Nc1ccn(CCO)c(=O)c1)c1ccc(C(F)(F)F)cc1Oc1ccc(F)cc1", "IC50": 2.8}
{"compound": "COc1cc(Oc2cc(C(F)(F)F)ccc2C(=O)Nc2cc[nH]c(=O)c2)ccc1F", "IC50": 0.026}
{"compound": "COc1cc(C)ccc1Oc1ccc(OC(F)(F)F)cc1C(=O)Nc1cc[nH]c(=O)c1", "IC50": 0.068}
{"compound": "O=C(Nc1cc[nH]c(=O)c1)c1ccc(C(F)(F)F)cc1O[C@@H]1CC2CCC1C2", "note": "(stereo not given in full)", "IC50": 0.765}
{"compound": "COc1ccc(Oc2ccc(F)cc2C(=O)Nc2cc[nH]c(=O)c2)c(C)c1", "IC50": 0.33}
